Measured values taken from PMC7653338 (Beilstein Journal of Organic Chemistry, 2020).
Entries after “also recorded” stand apart in the source; their conditions may differ. Residues, ends and D or L forms follow the SMILES beside them. *: point of attachment. X1 = O=C(Cc1ccc2ccccc2c1)N[C@H](Cc1ccccc1)C(=O)N[C@H](Cc1ccccc1)C(=O)N[C@H](CCCCN*)C(=O)N[C@H](Cc1ccc(O)cc1)C(=O)O

Assays:
HeLa cells = experiment: MTT cell viability assay, HeLa cells; format: cell-based; conditions: 400 μM, three days, absorbance 595 nm, three independent experiments
Experimental: (§1) We investigated the cell compatibility of 1 and 2 by incubation with two kinds of mammalian cells, HeLa and Saos-2 cells, using the 3-(4,5-dimethylthiazol-2-yl)-2,5-diphenyl tetrazolium bromide (MTT) assay. The cell viability of HeLa and Soas-2 cells after being incubated with 1 (400 μM) for three days are about 90% and 80%, respectively. […] To confirm that 1 and 2 convert from micelles to nanofibers in a cellular environment, we incubated of 1 or 2 at 500 μM in the lysates of HeLa cells (Figure S5, Supporting Information File 1) and examined the amount of each component in % by LC–MS. After 24 h incubation, 44% of 1 or 39% of 2, was cleaved to Nap-ffky, which self-assembles as part for the nanofibers. […] Then, we used confocal laser scanning microscopy (CLSM) to examine whether these compounds deliver RPE into HeLa cells. […]
(§2) Circular dichroism (CD) analysis : CD spectra were recorded ([…]) using a JASCO 810 spectrometer under a nitrogen atmosphere. […] The percentage of the secondary structures in different samples was calculated by the programs provided in DichroWeb. […]
(§3) reaction and to dissolve the purple formazan. After incubation of the cells at 37 ° C overnight, the absorbance of each well at 595 nm was measured in a multimode microplate reader. […]

Saos-2 cells = experiment: MTT cell viability assay, Saos-2 cells; format: cell-based; conditions: 400 μM, three days, absorbance 595 nm, three independent experiments
Experimental: as §1, §2, §3

[1] = format: in vitro ADME; conditions: 500 μM peptide in HeLa cell lysate, 24 h, 37 °C, lysis buffer pH 7.4, LC-MS
Experimental: as §1, with “cells. After mixing R-phycoerythrin (RPE), a red fluorescent protein, with 1 or 2 at different concentrations, we incubated the mixtures with HeLa cells for 2 h and 4 h.” for “cells.”
reaction and to dissolve the purple formazan. After incubation of the cells at 37 ° C overnight, the absorbance of each well at 595 nm was measured in a multimode microplate reader. Three independent experiments were performed, with an average ± […]
Confocal microscopy: Cells in the exponential growth phase were seeded in a glass-bottomed culture chamber at 1 × 10^5 cells/well. […]

proteinase K [2] = target: proteinase K (Parengyodontium album, UniProt P06873); experiment: Enzymatic proteolysis catalyzed by proteinase K, LC-MS; format: in vitro ADME; conditions: for proteolytic products with proteinase K: 5 mM peptide, proteinase K 5 U/mL, Tris-HCl buffer pH 7.0, 24 h, LC-MS
Sequence of proteinase K (Parengyodontium album, UniProt P06873) (P06873 106-384, species assumed): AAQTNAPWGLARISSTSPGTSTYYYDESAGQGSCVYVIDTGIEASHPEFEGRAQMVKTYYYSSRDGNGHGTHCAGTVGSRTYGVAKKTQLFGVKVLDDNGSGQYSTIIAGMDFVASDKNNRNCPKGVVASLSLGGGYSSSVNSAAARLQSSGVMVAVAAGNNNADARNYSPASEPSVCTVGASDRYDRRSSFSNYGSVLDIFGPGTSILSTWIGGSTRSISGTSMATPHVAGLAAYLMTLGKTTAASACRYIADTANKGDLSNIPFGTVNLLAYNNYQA
Experimental: After having obtained the peptides 1 and 2, we examined the enzymatic proteolysis of 1 and 2 catalyzed by proteinase K. We added proteinase K, a powerful endopeptidase, to the solutions of 1 and 2 (5 mM, pH 7.0, in Tris-HCl buffer). […] Then, we conducted a time-dependent CD analysis to examine the change of the secondary structural conformations of 1 and 2 during the proteolysis catalyzed by proteinase K in Tris-HCl buffer at pH 7.0. […] During the transition from micelles to fibrils, the CD signal at 210 nm reverses the sign, likely due to the self-assembly of Nap-ffky to helical fibrils. Analyzing the CD spectra by the Contin-LL analysis program, we estimated the percentage of each conformation, further confirming the trend and the assignment of the dominant conformation. As shown in Figure 2C and Figure 2F, the initial state of peptide 1 has more β-strand conformations than that of peptide 2. With increasing proteolysis time, the CD spectra indicate that the cleavage of 1 or 2 results in more assemblies that favor β-strand conformations (Figure 2D and Figure 2E). In addition, the ratio of the β-strand conformation resulted from the cleavage of 1 being slightly faster than that of 2.
Figure 2 A) LC–MS spectrum of the proteolytic products after 1 (5 mM) was incubated with proteinase K (5 U/mL) for 24 h. B) Time-dependent circular dichroism (CD) spectra of 1 incubated with proteinase K in Tris-HCl buffer at pH 7.0. C) CD simulation of the mixture from the spectra in B. D) LC–MS spectrum of the proteolytic products after 2 (5 mM) was incubated with proteinase K (5 U/mL) for 24 h. E) Time-dependent CD spectra of 2 incubated with proteinase K in Tris-HCl buffer at pH 7.0. F) CD simulation of the mixture from the spectra in E.

enterokinase (ENTK) [3] = target: enterokinase (ENTK) (Homo sapiens, UniProt P98073); experiment: Proteolysis by enterokinase (ENTK); format: in vitro ADME; conditions: Figures S3 and S4
Sequence of enterokinase (ENTK) (Homo sapiens, UniProt P98073) (P98073 whole entry, species assumed): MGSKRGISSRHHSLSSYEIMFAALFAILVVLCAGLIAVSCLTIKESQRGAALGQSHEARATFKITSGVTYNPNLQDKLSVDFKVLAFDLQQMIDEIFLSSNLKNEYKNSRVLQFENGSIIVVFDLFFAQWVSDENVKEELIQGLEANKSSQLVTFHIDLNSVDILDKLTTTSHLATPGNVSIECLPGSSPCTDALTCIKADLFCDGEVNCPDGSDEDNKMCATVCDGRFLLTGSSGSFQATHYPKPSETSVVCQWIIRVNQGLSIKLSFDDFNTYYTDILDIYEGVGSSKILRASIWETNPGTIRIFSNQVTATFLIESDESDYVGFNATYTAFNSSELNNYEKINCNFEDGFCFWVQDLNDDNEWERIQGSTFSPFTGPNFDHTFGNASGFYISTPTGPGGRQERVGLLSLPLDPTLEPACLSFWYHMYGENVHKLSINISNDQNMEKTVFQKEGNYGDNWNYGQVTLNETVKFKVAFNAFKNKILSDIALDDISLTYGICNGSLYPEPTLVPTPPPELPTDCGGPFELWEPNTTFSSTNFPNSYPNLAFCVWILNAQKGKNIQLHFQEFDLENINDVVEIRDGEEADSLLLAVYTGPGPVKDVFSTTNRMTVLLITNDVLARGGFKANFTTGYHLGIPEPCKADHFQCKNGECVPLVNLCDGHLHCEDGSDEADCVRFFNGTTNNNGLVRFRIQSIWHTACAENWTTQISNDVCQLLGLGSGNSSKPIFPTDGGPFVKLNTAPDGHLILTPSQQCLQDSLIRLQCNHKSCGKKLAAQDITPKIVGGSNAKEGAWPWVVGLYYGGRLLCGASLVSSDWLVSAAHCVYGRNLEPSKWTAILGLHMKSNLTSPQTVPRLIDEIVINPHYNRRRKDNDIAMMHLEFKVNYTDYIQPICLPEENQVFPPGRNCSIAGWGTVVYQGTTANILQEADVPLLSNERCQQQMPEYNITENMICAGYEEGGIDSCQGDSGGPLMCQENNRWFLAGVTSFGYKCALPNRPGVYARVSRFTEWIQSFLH
Text: In addition, unlike the FLAG-tag-based branched peptides, 1 and 2 are proteolytic-resistant to enterokinase (ENTK, Figures S3 and S4, Supporting Information File 1).

enterokinase (ENTK) [4] = experiment: enterokinase (ENTK)
proteinase K [5] = experiment: proteinase K (5 U/mL) in Tris-HCl buffer, pH 7.0; conditions: up to 24 h
[6] = lysates of HeLa cells, in 10 mmol of lysis buffer at pH 7.4; conditions: 37 °C, up to 24 h

not cleaved (enterokinase (ENTK) [4])	fragment found [6]	Compound	cell viability (HeLa cells)	cell viability (Saos-2 cells) [%]	amount cleaved to Nap-ffky [1] [%]	proteolytic products with proteinase K (proteinase K [2])	resistance to proteolysis by enterokinase (enterokinase (ENTK) [3])	fragment found (proteinase K [5])	stability towards the proteolysis (acetylated versus non-acetylated branch) (proteinase K [2]; proteinase K, compared with 1)
–	–	CC[C@H](C)[C@H](NC(=O)[C@H](CC(C)C)NC(=O)[C@H](CC(C)C)NC(=O)[C@H](CC(=O)O)NC(=O)[C@H](CC(=O)O)NC(=O)[C@H](CC(=O)O)NC(=O)[C@H](CCC(=O)O)NC(=O)[C@@H](N)CC(=O)O)C(=O)NCC(=O)NCCCC[C@@H](NC(=O)[C@@H](Cc1ccccc1)NC(=O)[C@@H](Cc1ccccc1)NC(=O)Cc1ccc2ccccc2c1)C(=O)N[C@H](Cc1ccc(O)cc1)C(=O)O [compound 1, Nap-ffk(NH2-DEDDDLLIG)y] (H-DEDDDLLIG-X1)	about 90%	~80	44	undergoes proteolytic cleavage to form DEDDDLLIG and Nap-ffky	proteolytic-resistant	–	–
proteolytic-resistant to enterokinase	Nap-ffky, 24 h	Nap-ffk(AcNH-DEDDDLLIG)y	–	–	–	–	–	Nap-ffky, 24 h	–
–	–	CC[C@H](C)[C@H](NC(=O)[C@H](CC(C)C)NC(=O)[C@H](CC(C)C)NC(=O)[C@H](CC(=O)O)NC(=O)[C@H](CC(=O)O)NC(=O)[C@H](CC(=O)O)NC(=O)[C@H](CCC(=O)O)NC(=O)[C@H](CC(=O)O)NC(C)=O)C(=O)NCC(=O)NCCCC[C@@H](NC(=O)[C@@H](Cc1ccccc1)NC(=O)[C@@H](Cc1ccccc1)NC(=O)Cc1ccc2ccccc2c1)C(=O)N[C@H](Cc1ccc(O)cc1)C(=O)O [compound 2, Nap-ffk(AcNH-DEDDDLLIG)y] (Ac-DEDDDLLIG-X1)	–	–	39	proteolytically hydrolyzes into four parts, including DEDDDLLIG, DEDDDLL, DEDDDL, and Nap-ffky	proteolytic-resistant	–	enhanced stability towards the proteolysis
proteolytic-resistant to enterokinase	Nap-ffky, 24 h	Nap-ffk(NH2-DEDDDLLIG)y	–	–	–	–	–	DEDDDLLIG, 24 h; also recorded: Nap-ffky, 24 h	–
